Experimental data reported in patent US10577363B2, “Substituted piperidine compounds” (EPIZYME, INC., priority 2014, dated 2020).

Key:
SMYD3 [1] = biological target: T1, SMYD3 (Homo sapiens (Human), UniProt Q9H7B4); test: SMYD3 biochemical assay (SPA, 3H-SAM methylation of MEKK2 protein substrate); conditions: read-out: SMYD3 Biochem IC50*
Procedure, shortened: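 Full-length native human SMYD3 (E. coli-expressed, tags removed) preincubated with compounds 30 min at room temperature, then reaction started with 3H-SAM and GST-tagged MEKK2 protein in 25 mM Tris-Cl pH 8.0, 1 mM TCEP, 0.005% BSG, 0.005% Tween 20. Quenched with unlabelled SAM (100 uM final); 3H-MEKK2 counted by SPA.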

SMYD3 [2] = biological target: T1, SMYD3; test: SMYD3 cell assay (Trimethyl-MEKK2 In-Cell Western in 293T/17 cells); type: cell-based; conditions: read-out: SMYD3 Cell IC50*
Procedure, shortened: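 In-Cell Western ratio of trimethyl-Lys260 MEKK2 to anti-flag signal; percent inhibition from DMSO and maximum-inhibition controls, IC50 by non-linear regression, triplicates.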

T1 sequence (Q9H7B4 whole entry): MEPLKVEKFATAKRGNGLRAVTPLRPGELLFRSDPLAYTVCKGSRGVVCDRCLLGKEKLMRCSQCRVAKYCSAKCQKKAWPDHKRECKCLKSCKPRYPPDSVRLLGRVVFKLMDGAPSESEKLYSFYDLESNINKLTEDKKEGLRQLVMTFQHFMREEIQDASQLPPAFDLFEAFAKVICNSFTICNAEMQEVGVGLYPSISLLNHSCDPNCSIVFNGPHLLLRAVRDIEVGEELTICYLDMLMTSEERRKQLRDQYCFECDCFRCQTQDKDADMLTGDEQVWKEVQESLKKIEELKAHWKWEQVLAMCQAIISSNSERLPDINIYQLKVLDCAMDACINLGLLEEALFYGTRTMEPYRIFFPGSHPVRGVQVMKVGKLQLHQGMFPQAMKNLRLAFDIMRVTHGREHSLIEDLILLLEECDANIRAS

Compound	IC50 (SMYD3 [1]) [nM]	IC50 (SMYD3 [2]) [nM]
CN1CCC(NS(=O)(=O)N2[C@@H]3CC[C@H]2C[C@@H](NC(=O)c2cc(C4CC4)on2)C3)CC1 [compound 893, 5-cyclopropyl-N-((1R,3r,5S)-8-(N-(1-methylpiperidin-4-yl)sulfamoyl)-8-azabicyclo[3.2.1]octan-3-yl)isoxazole-3-carboxamide]	13.7	239
CN1CCC([C@@H](Cc2ccccc2)S(=O)(=O)N2[C@@H]3CC[C@H]2C[C@@H](NC(=O)c2cc(C4CC4)on2)C3)CC1 [compound 894, 5-cyclopropyl-N-((1R,3R,5S)-8-(((R)-1-(1-methylpiperidin-4-yl)-2-phenylethyl)sulfonyl)-8-azabicyclo[3.2.1]octan-3-yl)isoxazole-3-carboxamide]	13.9	280
CN1CC2CCC1CN2S(=O)(=O)N1[C@@H]2CC[C@H]1C[C@@H](NC(=O)c1cc(C3CC3)on1)C2 [compound 895, 5-cyclopropyl-N-((1R,3r,5S)-8-((5-methyl-2,5-diazabicyclo[2.2.2]octan-2-yl)sulfonyl)-8-azabicyclo[3.2.1]octan-3-yl)isoxazole-3-carboxamide]	13.9	186
CC1(N)CCC(S(=O)(=O)N2[C@@H]3CC[C@H]2C[C@@H](NC(=O)c2cc(C4CC4)on2)C3)CC1 (stereo partly drawn) [compound 896, N-((1R,3R,5S)-8-(((1r,4R)-4-amino-4-methylcyclohexyl)sulfonyl)-8-azabicyclo[3.2.1]octan-3-yl)-5-cyclopropylisoxazole-3-carboxamide]	14	86.6
O=C(N[C@H]1C[C@H]2CC[C@@H](C1)N2S(=O)(=O)NC1CCNCC1)c1cc(C2CC2)on1 [compound 897, 5-cyclopropyl-N-((1R,3r,5S)-8-(N-(piperidin-4-yl)sulfamoyl)-8-azabicyclo[3.2.1]octan-3-yl)isoxazole-3-carboxamide]	14.1	423
C[C@@H](NC1CCN(S(=O)(=O)N2CC[C@H](NC(=O)c3cc(C4CC4)on3)C[C@@H]2C)CC1)c1ccccc1 [compound 898, 5-cyclopropyl-N-((2S,4S)-2-methyl-1-((4-(((R)-1-phenylethyl)amino)piperidin-1-yl)sulfonyl)piperidin-4-yl)isoxazole-3-carboxamide]	14.3	240
COCCCN(C)C1CCN(S(=O)(=O)N2[C@@H]3CC[C@H]2C[C@@H](NC(=O)c2cc(C4CC4)on2)C3)CC1 [compound 899, 5-cyclopropyl-N-((1R,3r,5S)-8-((4-((3-methoxypropyl)(methyl)amino)piperidin-1-yl)sulfonyl)-8-azabicyclo[3.2.1]octan-3-yl)isoxazole-3-carboxamide]	14.5	168
CN[C@H]1CC[C@@H](S(=O)(=O)N2CC[C@@H](NC(=O)c3cc(C4CC4)on3)[C@@H](C)C2)CC1 [compound 900, 5-cyclopropyl-N-((3S,4R)-3-methyl-1-(((1s,4R)-4-(methylamino)cyclohexyl)sulfonyl)piperidin-4-yl)isoxazole-3-carboxamide]	14.6	177
CC1CNCCN1S(=O)(=O)N1[C@@H]2CC[C@H]1C[C@@H](NC(=O)c1cc(C3CC3)on1)C2 (stereo partly drawn) [compound 901, 5-cyclopropyl-N-((1R,3r,5S)-8-((2-methylpiperazin-1-yl)sulfonyl)-8-azabicyclo[3.2.1]octan-3-yl)isoxazole-3-carboxamide]	15.1	97.7
CCC1CNCCN1S(=O)(=O)N1[C@@H]2CC[C@H]1C[C@@H](NC(=O)c1cc(C3CC3)on1)C2 (stereo partly drawn) [compound 902, 5-cyclopropyl-N-((1R,3r,5S)-8-((2-ethylpiperazin-1-yl)sulfonyl)-8-azabicyclo[3.2.1]octan-3-yl)isoxazole-3-carboxamide]	15.2	155
CC1CC(CS(=O)(=O)N2CC[C@H](NC(=O)c3cc(C4CC4)on3)C[C@@H]2C)CC(C)N1 (stereo partly drawn) [compound 903, 5-cyclopropyl-N-((2S,4S)-1-(((2,6-dimethylpiperidin-4-yl)methyl)sulfonyl)-2-methylpiperidin-4-yl)isoxazole-3-carboxamide]	16.2	277
